The values that follow come from ChEMBL document CHEMBL3779790, “Novel Imbricatolic acid derivatives as protein tyrosine phosphatase-1B inhibitors: Design, synthesis, biological evaluation and molecular docking” (Bioorg Med Chem Lett, 2016).

The inhibition is how much of the control response was suppressed. Usually IC50 stands for the concentration at which inhibition is half-maximal.

Assay [1] concerns the target T1, Tyrosine-protein phosphatase non-receptor type 1 (Homo sapiens) (UniProt P18031).
T1 sequence (whole entry): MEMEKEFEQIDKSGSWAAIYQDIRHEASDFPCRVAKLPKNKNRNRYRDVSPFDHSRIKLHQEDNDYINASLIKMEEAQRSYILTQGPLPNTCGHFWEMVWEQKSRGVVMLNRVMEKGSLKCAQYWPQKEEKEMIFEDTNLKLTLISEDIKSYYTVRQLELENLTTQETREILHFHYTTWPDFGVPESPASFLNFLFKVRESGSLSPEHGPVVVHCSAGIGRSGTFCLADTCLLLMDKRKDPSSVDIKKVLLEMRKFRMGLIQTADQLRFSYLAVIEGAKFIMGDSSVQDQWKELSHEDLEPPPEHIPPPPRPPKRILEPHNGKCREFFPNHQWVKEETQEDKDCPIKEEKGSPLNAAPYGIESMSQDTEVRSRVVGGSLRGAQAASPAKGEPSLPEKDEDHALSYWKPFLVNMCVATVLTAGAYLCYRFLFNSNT
As to the kind of experiment: Inhibition of human recombinant PTP-1B using IR5 insulin receptor residues as substrate at 10 uM after 30 mins by malachite green assay.

The target of assay [2] is T1, Tyrosine-protein phosphatase non-receptor type 1 (Homo sapiens). As to the kind of experiment: Inhibition of human recombinant PTP-1B using IR5 insulin receptor residues as substrate at 1 uM after 30 mins by malachite green assay.
The target is the same in assay [3]. Description: Inhibition of human recombinant PTP-1B using IR5 insulin receptor residues as substrate at 30 uM after 30 mins by malachite green assay.
In assay [4] the target is T2, Tyrosine-protein phosphatase non-receptor type 1 (Homo sapiens, UniProt P18031).
T2 sequence (P18031 whole entry): T1 sequence (whole entry)
As to the kind of experiment: Inhibition of human recombinant PTP-1B using IR5 insulin receptor residues as substrate after 30 mins by malachite green assay.

The target in assay [5] is T1, Tyrosine-protein phosphatase non-receptor type 1 (Homo sapiens). As to the kind of experiment: Inhibition of human recombinant PTP-1B using IR5 insulin receptor residues as substrate at 5 uM after 30 mins by malachite green assay.
The target is the same in assay [6]. As to the kind of experiment: Inhibition of human recombinant PTP-1B using IR5 insulin receptor residues as substrate at 100 uM after 30 mins by malachite green assay.

For the compound `C=C1CC[C@@H]2[C@](C)(CCC[C@]2(C)C(=O)O)[C@H]1CC[C@H](C)CC(=O)O`, in assay [1], the inhibition was 35.6%.
For `C=C1CC[C@H]2[C@@](C)(CO)CCC[C@]2(C)[C@H]1CC[C@H](C)CCO`, the inhibition in assay [1] came to 29.5%.
Regarding `C=C1CC[C@@H]2[C@](C)(CCC[C@]2(C)C(=O)O)[C@H]1CC[C@H](C)CC=O`, the inhibition in assay [1] came to 19.9%.
Turning to `C=C1CC[C@@H]2[C@](C)(CCC[C@]2(C)C(=O)O)[C@H]1CC[C@H](C)CCO` [IMBRICATOLIC ACID], the inhibition in assay [2] is 5.9%; in assay [1], 59.2%; in assay [3] it was 67.2%; in assay [5], 19.2%; in assay [6] it was 71.1%. The IC50 in assay [4] is 8.8 µM.
In the case of `C=C1CC[C@@H]2[C@](C)(CCC[C@]2(C)C(=O)O)[C@H]1CC[C@H](C)C/C=N/OC(C)=O`, the inhibition in assay [1] stood at 43.5%.
In the case of `C=C1CC[C@@H]2[C@](C)(CCC[C@]2(C)NC(N)=O)[C@H]1CC[C@H](C)CNC(N)=O`, the inhibition was 9.3% in assay [2]; 65.8% in assay [1]; 67.2% in assay [3]; 37.3% in assay [5]; 79.2% in assay [6]. In addition, the IC50 in assay [4] amounted to 6.8 µM.
With `C=C1CC[C@@H]2[C@](C)(CCC[C@]2(C)C(=O)O)[C@H]1CC[C@H](C)C/C=N/O`, the inhibition in assay [1] amounted to 40.1%.
`C=C1CC[C@@H]2[C@](C)(CCC[C@]2(C)N=C=O)[C@H]1CC[C@H](C)CN=C=O`: the inhibition in assay [1] came out at 45.7%.
Same read-out and setting: for `C=C1CC[C@@H]2[C@](C)(CCC[C@]2(C)C(=O)OCC)[C@H]1CC[C@H](C)CCO` the value was 23.1%; for `C=C1CC[C@@H]2[C@](C)(CCC[C@]2(C)N=C=O)[C@H]1CC[C@H](C)CCO`, 41.3%.
`C=C1CC[C@@H]2[C@](C)(CCC[C@]2(C)NC(N)=O)[C@H]1CC[C@H](C)C/C=N/O`: the inhibition was 7.1% in assay [2]; 59.9% in assay [1]; 63.2% in assay [3]; 38.2% in assay [5]; 69.2% in assay [6]. Also, in assay [4], the IC50 was 7.8 µM.
Turning to `C=C1CC[C@@H]2[C@](C)(CCC[C@]2(C)NC(N)=O)[C@H]1CC[C@H](C)C/C=N/OC(C)=O`, the inhibition in assay [2] was 11.2%; in assay [1], 65.3%; in assay [3], 79.1%; in assay [5], 31.7%; in assay [6], 82.2%. Further, the IC50 in assay [4] was determined as 7 µM.
Consider `Cc1ccc(C(=O)Nc2ccc(S(=O)(=O)O)c3cc(S(=O)(=O)O)cc(S(=O)(=O)O)c23)cc1NC(=O)c1cccc(NC(=O)Nc2cccc(C(=O)Nc3cc(C(=O)Nc4ccc(S(=O)(=O)O)c5cc(S(=O)(=O)O)cc(S(=O)(=O)O)c45)ccc3C)c2)c1`, for which the inhibition in assay [1] amounted to 64.3%.
As to `C=C1CC[C@H]2[C@@](C)(COC(C)=O)CCC[C@]2(C)[C@H]1CC[C@H](C)CCOC(C)=O`, in assay [1], the inhibition was 34.2%.
On the same count and under the same terms, with `C=C1CC[C@@H]2[C@](C)(CCC[C@]2(C)N=C=O)[C@H]1CC[C@H](C)C/C=N/OC(C)=O` the figure was 44.8%.
`C=C1CC[C@@H]2[C@](C)(CCC[C@]2(C)NC(N)=O)[C@H]1CC[C@H](C)CCO`: the inhibition amounted to 8.2% in assay [2]; 61.5% in assay [1]; 79.2% in assay [3]; 25.9% in assay [5]; 87.2% in assay [6]. For the same compound, in assay [4], the IC50 was 6.3 µM.
